Reference: ChEMBL document CHEMBL1641531, “Receptor activity and conformational analysis of 5'-halogenated resiniferatoxin analogs as TRPV1 ligands” (Bioorg Med Chem Lett, 2011)

Key:
[1] = target: T1, Transient receptor potential cation channel subfamily V member 1 (Rattus norvegicus, UniProt O35433); experiment: Agonist activity at rat TRPV1 expressed in CHO cells assessed as 45Ca2+ uptake; format: functional, cell-based
[2] = target: T1, Transient receptor potential cation channel subfamily V member 1; experiment: (§1) Antagonist activity at rat TRPV1 expressed in CHO cells assessed as response to capsaicin-stimulated 45Ca2+ uptake; format: functional, cell-based
[3] = target: T1, Transient receptor potential cation channel subfamily V member 1; experiment: Displacement of [3H]RTX from rat […] expressed in CHO cells by competitive binding assay; format: cell-based
[4] = target: Transient receptor potential cation channel subfamily V member 1 (Rattus norvegicus) (UniProt O35433); experiment: Agonist activity at rat TRPV1 expressed in CHO cells assessed as 45Ca2+ uptake relative to capsaicin; format: functional, cell-based
Sequence of Transient receptor potential cation channel subfamily V member 1 (Rattus norvegicus) (O35433 whole entry): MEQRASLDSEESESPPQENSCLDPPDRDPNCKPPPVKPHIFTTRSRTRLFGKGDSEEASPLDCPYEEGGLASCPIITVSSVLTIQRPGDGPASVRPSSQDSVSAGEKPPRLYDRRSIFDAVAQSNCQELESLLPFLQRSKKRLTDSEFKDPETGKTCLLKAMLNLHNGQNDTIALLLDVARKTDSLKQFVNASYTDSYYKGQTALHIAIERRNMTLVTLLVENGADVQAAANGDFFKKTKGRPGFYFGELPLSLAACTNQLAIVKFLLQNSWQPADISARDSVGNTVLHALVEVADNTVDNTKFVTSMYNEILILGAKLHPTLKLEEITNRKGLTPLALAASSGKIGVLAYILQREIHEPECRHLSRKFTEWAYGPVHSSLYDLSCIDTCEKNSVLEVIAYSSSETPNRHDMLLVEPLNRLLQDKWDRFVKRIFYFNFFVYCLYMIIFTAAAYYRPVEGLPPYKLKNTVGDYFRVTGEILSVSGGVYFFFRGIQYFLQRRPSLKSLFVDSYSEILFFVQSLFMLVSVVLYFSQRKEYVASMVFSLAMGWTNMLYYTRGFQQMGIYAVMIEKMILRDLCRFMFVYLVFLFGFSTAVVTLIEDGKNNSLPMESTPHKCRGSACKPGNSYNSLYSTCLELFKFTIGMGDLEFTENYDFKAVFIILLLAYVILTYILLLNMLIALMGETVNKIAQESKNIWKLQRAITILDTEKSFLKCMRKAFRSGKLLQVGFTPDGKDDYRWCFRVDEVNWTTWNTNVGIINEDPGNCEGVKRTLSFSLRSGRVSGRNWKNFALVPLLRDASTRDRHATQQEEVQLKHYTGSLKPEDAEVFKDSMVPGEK

[5] = target: Transient receptor potential cation channel subfamily V member 1 (Rattus norvegicus) (UniProt O35433); experiment: as §1; format: functional, cell-based; set-up: scale not given: the % may be the effect or the level left

T1 sequence (O35433 whole entry): as above

With `C=C(C)[C@@]12C[C@@H](C)C34OC(Cc5ccccc5)(OC1[C@@H]3C=C(COC(=O)Cc1cc(F)c(O)c(OC)c1)C[C@]1(O)C(=O)C(C)=C[C@@H]41)O2` (stereo partly specified) the EC50 ([1]; read-out: EC50) was 1.88 nM, the Ki ([2]; cho) was “Not Active” and the Ki [3] was 0.26 nM.

`C=C(C)[C@@]12C[C@@H](C)C34OC(Cc5ccccc5)(OC1[C@@H]3C=C(COC(=O)Cc1cc(F)c(N)c(OC)c1)C[C@]1(O)C(=O)C(C)=C[C@@H]41)O2` (stereo partly specified) was tested, and the EC50 ([1]; read-out: EC50) was 1.14 nM, the Ki ([2]; cho) was “Not Active” and the Ki [3] was 0.7 nM.

Molecule `C=C(C)[C@@]12C[C@@H](C)C34OC(Cc5ccccc5)(OC1[C@@H]3C=C(COC(=O)Cc1cc(Br)c(O)c(OC)c1)C[C@]1(O)C(=O)C(C)=C[C@@H]41)O2` (stereo partly specified) has an Activity [4] of 19%, a Ki ([2]; read-out: Ki) of 7.2 nM and a Ki [3] of 0.17 nM.

With `C=C(C)[C@@]12C[C@@H](C)C34OC(Cc5ccccc5)(OC1[C@@H]3C=C(COC(=O)Cc1cc(Br)cc(Br)c1)C[C@]1(O)C(=O)C(C)=C[C@@H]41)O2` (stereo partly specified) the EC50 ([1]; read-out: EC50) was 1070 nM, the Ki ([2]; cho) was “Not Active” and the Ki [3] was 110 nM.

For `C=C(C)[C@@]12C[C@@H](C)C34OC(Cc5ccccc5)(OC1[C@@H]3C=C(COC(=O)Cc1ccc(N)c(OC)c1)C[C@]1(O)C(=O)C(C)=C[C@@H]41)O2` (stereo partly specified), the EC50 ([1]; read-out: EC50) was 0.46 nM, the Ki ([2]; cho) was “Not Active” and the Ki [3] was 0.13 nM.

With `C=C(C)[C@@]12C[C@@H](C)C34OC(Cc5ccccc5)(OC1[C@@H]3C=C(COC(=O)Cc1cc(I)c(O)c(OC)c1)C[C@]1(O)C(=O)C(C)=C[C@@H]41)O2` (stereo partly specified) the EC50 ([1]; cho) was “Not Active”, the Ki ([2]; read-out: Ki) was 12.2 nM and the Ki [3] was 0.61 nM.

With `C=C(C)[C@@]12C[C@@H](C)C34OC(Cc5ccccc5)(OC1[C@@H]3C=C(COC(=O)Cc1cc(Br)c(OC(C)=O)c(OC)c1)C[C@]1(O)C(=O)C(C)=C[C@@H]41)O2` (stereo partly specified) the Activity [4] was 37%, the Activity [5] was 30% and the Ki [3] was 0.3 nM.

Work on `C=C(C)[C@@]12C[C@@H](C)C34OC(Cc5ccccc5)(OC1[C@@H]3C=C(COC(=O)Cc1cc(Cl)c(N)c(OC)c1)C[C@]1(O)C(=O)C(C)=C[C@@H]41)O2` (stereo partly specified) yielded an Activity [4] of 34%, an Activity [5] of 56% and a Ki [3] of 0.85 nM.

`C=C(C)[C@@]12C[C@@H](C)C34OC(Cc5ccccc5)(OC1[C@@H]3C=C(COC(=O)Cc1cc(Br)c(N)c(OC)c1)C[C@]1(O)C(=O)C(C)=C[C@@H]41)O2` (stereo partly specified) was tested, and the EC50 ([1]; cho) was “Not Active”, the Ki ([2]; read-out: Ki) was 2.81 nM and the Ki [3] was 1.99 nM.

With `C=C(C)[C@]12C[C@@H](C)[C@@]34O[C@](Cc5ccccc5)(O[C@@H]1[C@@H]3C=C(COC(=O)Cc1ccc(O)c(OC)c1)C[C@]1(O)C(=O)C(C)=C[C@@H]41)O2` [RESINIFERATOXIN] the Ki ([2]; cho) was “Not Active”.

In the case of `C=C(C)[C@@]12C[C@@H](C)C34OC(Cc5ccccc5)(OC1[C@@H]3C=C(COC(=O)Cc1cc(Cl)c(O)c(OC)c1)C[C@]1(O)C(=O)C(C)=C[C@@H]41)O2` (stereo partly specified), the EC50 ([1]; read-out: EC50) is reported as 5.7 nM, the Ki ([2]; cho) is reported as “Not Active” and the Ki [3] is reported as 1.03 nM.
